# Reference: patent US12252701B2, “Chimeric antigen receptor T cell therapy” (KITE PHARMA, INC., priority 2020, dated 2025)
# Read-outs that look alike come from different tables or passages of the source.
# Legend:
# CD19 CAR T cells = experiment: CAR T cell cytokine production (Luminex) under CD19 K562, KIP-1 or CD2/3/28 stimulation; details: 72 h; for IC50: Homo sapiens, T-cell; for Suppression of cytokine production, IFNg (IC50) / Suppression of cytokine production, IL-6 (IC50): K562-CD19 stimulation
# [1] = cited from earlier work
# CAR-T cells = experiment: CAR-T cell expansion assay (KIP-1 or CD3/CD28 stimulation); details: for % viabili.: CD3/CD28 stimulation; for % viabi.: KIP-1 stimulation
smiles,measurement,setting,value
N#CCC1(n2cc(-c3ncnc4[nH]ccc34)cn2)CN(C2CCN(C(=O)c3ccnc(C(F)(F)F)c3F)CC2)C1 [itacitinib],IC50,"CD19 CAR T cells; read-out: Suppression of cytokine production, GMCSF (IC50), CD3/CD28 stimulation, 72 h",< 100 nM
same,IC50,"CD19 CAR T cells; read-out: Suppression of cytokine production, GMCSF (IC50), K562-CD19 stimulation, 72 h",377 nM
same,IC50,"CD19 CAR T cells; read-out: Suppression of cytokine production, GMCSF (IC50), KIP-1 stimulation, 72 h",273 nM
same,IC50,"CD19 CAR T cells; read-out: Suppression of cytokine production, GzB (IC50), CD3/CD28 stimulation, 72 h",2740 nM
same,IC50,"CD19 CAR T cells; read-out: Suppression of cytokine production, GzB (IC50), K562-CD19 stimulation, 72 h",> 10000 nM
same,IC50,"CD19 CAR T cells; read-out: Suppression of cytokine production, GzB (IC50), KIP-1 stimulation, 72 h",> 10000 nM
same,IC50,"CD19 CAR T cells; read-out: Suppression of cytokine production, IFNg (IC50), CD3/CD28 stimulation, 72 h",> 10000 nM
same,IC50,"CD19 CAR T cells; read-out: Suppression of cytokine production, IFNg (IC50), KIP-1 stimulation, 72 h",> 10000 nM
same,IC50,"CD19 CAR T cells; read-out: Suppression of cytokine production, IL-2Ra (IC50), CD3/CD28 stimulation, 72 h",144 nM
same,IC50,"CD19 CAR T cells; read-out: Suppression of cytokine production, IL-2Ra (IC50), K562-CD19 stimulation, 72 h",< 100 nM
same,IC50,"CD19 CAR T cells; read-out: Suppression of cytokine production, IL-2Ra (IC50), KIP-1 stimulation, 72 h",< 100 nM
same,IC50,"CD19 CAR T cells; read-out: Suppression of cytokine production, IL-6 (IC50), CD3/CD28 stimulation, 72 h",< 100 nM
same,IC50,"CD19 CAR T cells; read-out: Suppression of cytokine production, IL-6 (IC50), KIP-1 stimulation, 72 h",1970 nM
same,IC50,"CD19 CAR T cells; read-out: Suppression of cytokine production, IL-8 (IC50), CD3/CD28 stimulation, 72 h",< 100 nM
same,IC50,"CD19 CAR T cells; read-out: Suppression of cytokine production, IL-8 (IC50), K562-CD19 stimulation, 72 h",< 100 nM
same,IC50,"CD19 CAR T cells; read-out: Suppression of cytokine production, IL-8 (IC50), KIP-1 stimulation, 72 h",< 100 nM
same,IC50,"CD19 CAR T cells; read-out: Suppression of cytokine production, IL-10 (IC50), CD3/CD28 stimulation, 72 h",< 100 nM
same,IC50,"CD19 CAR T cells; read-out: Suppression of cytokine production, IL-10 (IC50), K562-CD19 stimulation, 72 h",< 100 nM
same,IC50,"CD19 CAR T cells; read-out: Suppression of cytokine production, IL-10 (IC50), KIP-1 stimulation, 72 h",< 100 nM
same,IC50,"CD19 CAR T cells; read-out: Suppression of cytokine production, MCP-1 (IC50), CD3/CD28 stimulation, 72 h",< 100 nM
same,IC50,"CD19 CAR T cells; read-out: Suppression of cytokine production, MCP-1 (IC50), K562-CD19 stimulation, 72 h",< 100 nM
same,IC50,"CD19 CAR T cells; read-out: Suppression of cytokine production, MCP-1 (IC50), KIP-1 stimulation, 72 h",2580 nM
same,IC50,"CD19 CAR T cells; read-out: Suppression of cytokine production, MIG (IC50), CD3/CD28 stimulation, 72 h",549 nM
same,IC50,"CD19 CAR T cells; read-out: Suppression of cytokine production, MIG (IC50), K562-CD19 stimulation, 72 h",< 100 nM
same,IC50,"CD19 CAR T cells; read-out: Suppression of cytokine production, MIG (IC50), KIP-1 stimulation, 72 h",< 100 nM
same,IC50,"CD19 CAR T cells; read-out: Suppression of cytokine production, MIP-1a (IC50), CD3/CD28 stimulation, 72 h",361 nM
same,IC50,"CD19 CAR T cells; read-out: Suppression of cytokine production, MIP-1a (IC50), K562-CD19 stimulation, 72 h",167 nM
same,IC50,"CD19 CAR T cells; read-out: Suppression of cytokine production, MIP-1a (IC50), KIP-1 stimulation, 72 h",1420 nM
same,IC50,"CD19 CAR T cells; read-out: Suppression of cytokine production, MIP-1b (IC50), CD3/CD28 stimulation, 72 h",< 100 nM
same,IC50,"CD19 CAR T cells; read-out: Suppression of cytokine production, MIP-1b (IC50), K562-CD19 stimulation, 72 h",149 nM
same,IC50,"CD19 CAR T cells; read-out: Suppression of cytokine production, MIP-1b (IC50), KIP-1 stimulation, 72 h",553 nM
same,IC50,"CD19 CAR T cells; read-out: Suppression of cytokine production, Perforin (IC50), CD3/CD28 stimulation, 72 h",1600 nM
same,IC50,"CD19 CAR T cells; read-out: Suppression of cytokine production, Perforin (IC50), K562-CD19 stimulation, 72 h",< 100 nM
same,IC50,"CD19 CAR T cells; read-out: Suppression of cytokine production, Perforin (IC50), KIP-1 stimulation, 72 h",431 nM
same,IC50,"CD19 CAR T cells; read-out: Suppression of cytokine production, TNFa (IC50), CD3/CD28 stimulation, 72 h",< 100 nM
same,IC50,"CD19 CAR T cells; read-out: Suppression of cytokine production, TNFa (IC50), K562-CD19 stimulation, 72 h",< 100 nM
same,IC50,"CD19 CAR T cells; read-out: Suppression of cytokine production, TNFa (IC50), KIP-1 stimulation, 72 h",320 nM
same,"Suppression of cytokine production, IFNg (IC50)",CD19 CAR T cells,Suppress
same,"Suppression of cytokine production, IL-6 (IC50)",CD19 CAR T cells,Suppress
C[C@@H]1CCN(C(=O)CC#N)C[C@@H]1N(C)c1ncnc2[nH]ccc12 [tofacitinib],"Suppression of cytokine production, IFNg (IC50)",CD19 CAR T cells,Suppress
same,"Suppression of cytokine production, IL-6 (IC50)",CD19 CAR T cells,Suppress
same,Cmax,"[1]; human, in vivo",58 ng/mL
same,Protein binding,"[1]; plasma protein binding, reported",40%
same,% viabili.,"CAR-T cells; 10 nM, Day 0",84%
same,% viabili.,"CAR-T cells; 10 nM, Day 4",70.8%
same,% viabili.,"CAR-T cells; 10 nM, Day 8",80.9%
same,% viabili.,"CAR-T cells; 10 nM, Day 12",82.9%
same,% viabili.,"CAR-T cells; 20 nM, Day 0",84%
same,% viabili.,"CAR-T cells; 20 nM, Day 4",81.1%
same,% viabili.,"CAR-T cells; 20 nM, Day 8",70.1%
same,% viabili.,"CAR-T cells; 20 nM, Day 12",79.5%
same,% viabili.,"CAR-T cells; 40 nM, Day 0",84%
same,% viabili.,"CAR-T cells; 40 nM, Day 4",89.2%
same,% viabili.,"CAR-T cells; 40 nM, Day 8",73.5%
same,% viabili.,"CAR-T cells; 40 nM, Day 12",74.8%
same,% viabili.,"CAR-T cells; 60 nM, Day 0",84%
same,% viabili.,"CAR-T cells; 60 nM, Day 4",93.1%
same,% viabili.,"CAR-T cells; 60 nM, Day 8",86.6%
same,% viabili.,"CAR-T cells; 60 nM, Day 12",74.5%
same,% viabili.,"CAR-T cells; 80 nM, Day 0",84%
same,% viabili.,"CAR-T cells; 80 nM, Day 4",91.7%
same,% viabili.,"CAR-T cells; 80 nM, Day 8",86.3%
same,% viabili.,"CAR-T cells; 80 nM, Day 12",77%
same,% viabili.,"CAR-T cells; 100 nM, Day 0",84%
same,% viabili.,"CAR-T cells; 100 nM, Day 4",94.3%
same,% viabili.,"CAR-T cells; 100 nM, Day 8",85.5%
same,% viabili.,"CAR-T cells; 100 nM, Day 12",73.9%
same,% viabi.,"CAR-T cells; 10 nM, Day 0",84%
same,% viabi.,"CAR-T cells; 10 nM, Day 4",77.9%
same,% viabi.,"CAR-T cells; 10 nM, Day 8",61.2%
same,% viabi.,"CAR-T cells; 10 nM, Day 12",85.2%
same,% viabi.,"CAR-T cells; 20 nM, Day 0",84%
same,% viabi.,"CAR-T cells; 20 nM, Day 4",84.7%
same,% viabi.,"CAR-T cells; 20 nM, Day 8",64.9%
same,% viabi.,"CAR-T cells; 20 nM, Day 12",79.3%
same,% viabi.,"CAR-T cells; 40 nM, Day 0",84%
same,% viabi.,"CAR-T cells; 40 nM, Day 4",84.3%
same,% viabi.,"CAR-T cells; 40 nM, Day 8",77.5%
same,% viabi.,"CAR-T cells; 40 nM, Day 12",76%
same,% viabi.,"CAR-T cells; 60 nM, Day 0",84%
same,% viabi.,"CAR-T cells; 60 nM, Day 4",82.3%
same,% viabi.,"CAR-T cells; 60 nM, Day 8",70.2%
same,% viabi.,"CAR-T cells; 60 nM, Day 12",76.1%
same,% viabi.,"CAR-T cells; 80 nM, Day 0",84%
same,% viabi.,"CAR-T cells; 80 nM, Day 4",81.8%
same,% viabi.,"CAR-T cells; 80 nM, Day 8",69.7%
same,% viabi.,"CAR-T cells; 80 nM, Day 12",73.4%
same,% viabi.,"CAR-T cells; 100 nM, Day 0",84%
same,% viabi.,"CAR-T cells; 100 nM, Day 4",73.2%
same,% viabi.,"CAR-T cells; 100 nM, Day 8",72.7%
same,% viabi.,"CAR-T cells; 100 nM, Day 12",79.4%
same,effect on T cell expansion,CAR-T cells; at the doses tested (Table 40),moderate effects
same,impacts on expansion in further dose titrations,CAR-T cells; compared with upadacitinib and baricitinib,less severe in comparison
